Test results as given in patent publication US20260085315A1, “POLYNUCLEOTIDE COMPOSITIONS AND METHODS FOR TREATMENT OF CANCER” (APTAH BIO, INC., priority 2023, published 2026).
d = 2'-deoxy (DNA); m = 2'-O-methyl

Columns and labels:
MCF-7 cell line = test: Mitochondrial membrane potential (MitoTracker Red); assay type: cell-based, Human; details: 0.25, 0.5, 1 μM; 24 hours; vs non-treated cells
Protocol: The evaluation of ASMO1 APT20TTMG effect on the mitochondrial membrane potential of MCF-7 cell line was performed using MitoTracker Red dye. MitoTracker Red is a cationic fluorophore that accumulates in the mitochondria matrix, providing an indication of the viability and integrity of that organelle.
For this, cells were cultured overnight in 24-well plates at a density of 1×10^5 cells/well, aiming cell adhesion. After that, cells were treated with three concentrations of APT20TTMG (0.25, 0.5, and 1 μM) for 24 hours. After treatment with the ASMO1, cells were collected using a 0.05% trypsin solution and washed twice with 2.0 mL of PBS buffer. Finally, samples were incubated with 500 μL of MitoTracker Red fluorescent dye solution at a concentration of 50 nM for 15 minutes in an incubator. Then the cells were again washed twice with 2 mL of PBS and, subsequently, analyzed in a flow cytometer (BD FACSCanto II, BD Biosciences) through the acquisition of 10.000 gated events/sample.

PC-3 cell line = test: MTT cytotoxicity assay on human cancer cell panel (Example 2); assay type: cell-based; details: 24, 48, 72 hours; 0.03-30 μM; 1% FBS
Protocol: Cell lines were maintained in growth medium with 10% of Fetal Bovine Serum (FBS) until the time of the experiments. Cells were sub-cultured by trypsinization and splitting the cell suspension into fresh flasks and supplementing with fresh culture medium. To perform the assay, the cells were trypsinized, neutralized with complete medium (10% FBS), centrifuged, counted with assistance of a hemocytometer, and plated with the respective media with 10% FBS. Cell lines were plated at a density of 1×10^4 cells per well, other than the SH-SY5Y cell line which was plated at a density of 2.5×10^4. The preparation of the different experimental groups was done with 0.1% FBS (U87MG, MCF-7, SH-SY5Y and 786-O) and 1% FBS (PC-3). The untreated cells were used as negative control (medium only). After 24, 48, 72 and 96 hours of incubation, the effect of ASMO1 and controls on cytotoxicity of cells was determined by MTT assay.
Briefly, plates were taken out and 20 μl of 5 mg/ml of MTT 3-(4,5-dimethythiazol-2-yl)-2,5-diphenyl tetrazolium bromide solution was added to all the wells. […] The absorbance of each well was then read at 540 nm using Synergy HT microplate reader.
Cells were plated and treated with 7 different concentrations (0.03, 0.1, 0.3, 1, 3, 10 and 30 μM) of APT20TTMG with medium (1% FBS). MTT assay was performed in 3 distinct times and graphs are represented as absorbance (540 nm). […]

SH-SY5Y cell line [1] = test: Mitochondrial membrane potential; assay type: cell-based, Human; details: all treatments vs non-treated cells
[2] = Body weight in xenograft study; assay type: in vivo, athymic nude mice; details: 20 mg/kg i.v. q3d, 3 weeks
Protocol: Body weight and tumor size were measured weekly twice using digital caliper. At termination, blood was collected through retro-orbital route. Serum/plasma was separated and stored at deep freezer (−20° C.). Post blood collection, animals were humanely sacrificed by CO2 asphyxiation as per latest guidelines issued by CPCSEA. All the vital organ (brain, kidney, liver, lungs, heart) and tumor were dissected out. Vital organs were fixed in 10% NBF and stored. Tumor tissue was dissected out, weighed and portion of tumor tissue was fixed in 10% NBF and another portion is snap frozen and stored at deep freezer (−80° C.).
As shown in FIG. 34A-C, tumor fragments from the U-87MG cell line were implanted in the animals and once the tumor size reached ˜100 mm^3 animals were randomized into 3 experimental groups (G1, G2, and G3). G1: Vehicle, (G2) Reference Item Temozolomide, and (G3) APT20TTMG for a total of 22 days. (A) The tumor volume of the animals was measured twice/a week. (B) Animals were weighed throughout the experiment and the change in weight gain compared to pre-treatment weight was plotted. (C) After the euthanasia of the animals, the tumors were removed and weighed.

TAU protein = test: Tau quantification by Western blot in SK-N-SH; assay type: cell-based; details: 0.5 μM
Protocol: FIG. 27A-27B illustrates MAPT expression and tau quantification obtained after 24, 48, 96 and 144 hours of incubation with ASMO1 (0.5 μM) in neuroblastoma cell line.
Cells were rinsed once with ice-cold PBS, collected, and pelleted by centrifugation at 2500 g for 5 minutes at 4° C. Each sample was re-suspended and lysed in 50 μl ice-cold radioimmunoprecipitation assay (RIPA) buffer (Thermo Fisher Scientific, USA) containing EDTA-free Halt protease and phosphatase inhibitor cocktail mixture (Thermo Fisher Scientific, USA) for 20 min at 4° C. To increase protein yields, each sample was homogenized using a 29 G×13 mm needle and syringe. Cell lysates were clarified by centrifugation at 17,000 g for 15 minutes at 4° C. Supernatants were collected and total protein concentration was determined using the BCA protein assay kit (Thermo Fisher Scientific, USA) according to the manufacturer's instructions. 15 μg of total protein in cell lysates were denatured in NuPAGE LDS sample buffer (Thermo Fisher Scientific, USA) with NuPAGE sample reducing agent (DTT; Thermo Fisher Scientific, USA) and boiled at 90° C. for 5 minutes. […] Densitometry using Image J (v1.48k; NIH) was performed and all quantification was standardized against vinculin levels.

SH-SY5Y cell line [3] = test: Apoptosis/necrosis phase distribution; assay type: cell-based, Human; details: 0.25 μM; 24 hours
U87-MG cell line = test: Mitochondrial membrane potential; assay type: cell-based, Human; details: 0.25 and 0.5 μM

APT20TTMG: engineered polynucleotide ASMO1, 24 nt, SEQ ID NO: 3 gtccactaacctttcaggccagcg; targeting moieties 5′-GTCCA-3′ and 5′-CG-3′, U1 snRNP recruiting moiety (GTCCACTAACCTTTCAGGCCAGCG; sugars from the 5' end m5 d14 m5, all phosphorothioate, methylation of C and T or U not given here)
mitochondrial membrane potential (MCF-7 cell line): no change in mitochondrial membrane potential | cytotoxic or cytostatic effect (MTT) (PC-3 cell line): does not exert a cytotoxic or cytostatic effect | mitochondrial membrane potential (SH-SY5Y cell line [1]): no change in mitochondrial membrane potential | body weight of animals [2]: gain weight throughout the experiment | reduction of tau protein quantification (TAU protein; first of 'the two highest concentrations' as printed (parallel to 96 h)): 40±13.3% | reduction of tau protein quantification (TAU protein; second of 'the two highest concentrations' as printed (parallel to 144 h)): 46±14.3% | necrotic cells (SH-SY5Y cell line [3]): increase in necrotic cells | mitochondrial membrane potential labeling (U87-MG cell line): reducing the labeling
